US20080171746A1, “Method for Preventing Cardiovascular Diseases” (priority 2005, published 2008)
pIC50: −log10 of the molar value.

Assays:
PDE5A1 = target: T1, PDE5A1 (Homo sapiens, UniProt O76074); assay: Inhibition of PDE5A1 activity, modified SPA (scintillation proximity assay) with recombinant enzyme; type: biochemical; settings: for pIC50: recombinant PDE5A1, 0.5 μM cGMP substrate, read-out: Inhibition of the PDE5 activity (IC50)
T1 construct: made in house; host or cells: SF21 insect cells (baculovirus; virus made in SF9)
Source text: The PDE5A1 (GB no. AF043731) was cloned via PCR from Kidney cDNA. A 5′ fragment was amplified with OZ489 (5′-[…] -3′) and OZ 493 (5′-[…]-3′), a 3′ fragment was amplified with OZ 492 (5′-[…]-3′) and OZ 490 (5′-[…]-3′). Both fragments were cloned into pCR2.1-Topo. Primers OZ 493 and OZ 492 have a nucleotide substitution that doesn't affect the translated sequence, but introduces an EcoRI cutting site. The 2 fragments were cut out of the cloning vector with EcoRI and subcloned together in a single ligation reaction into pBP9, resulting in the construct PZ 287. […] For correct expression it was subcloned with Xmal/Sacl into pBacPak8.
The recombinant baculovirus was prepared by means of homologous recombination in SF9 insect cells. The expression plasmid was cotransfected with Bac-N-Blue (Invitrogen, Groningen, NL) or Baculo-Gold DNA (Pharmingen, Hamburg) using a standard protocol (Pharmingen, Hamburg). Wt virus-free recombinant virus supernatant was selected using plaque assay methods. After that, high-titre virus supernatant was prepared by amplifying 3 times. PDE was expressed in SF21 cells by infecting 2×10^6 cells/ml with an MOI (multiplicity of infection) between 1 and 10 in serum-free SF900 medium (Life Technologies, Paisley, UK). The cells were cultured at 28° C. for 48-72 hours, after which they were pelleted for 5-10 min at 1000 g and 4° C.
The SF21 insect cells were resuspended, at a concentration of approx. 10^7 cells/ml, in ice-cold (4° C.) homogenization buffer (20 mM Tris, pH 8.2, containing the following additions: 140 mM NaCl, 3.8 mM KCl, 1 mM EGTA, 1 mM MgCl2, 10 mM β-mercaptoethanol, 2 mM benzamidine, 0.4 mM Pefablock, 10 μM leupeptin, 10 μM pepstatin A, 5 μM trypsin inhibitor) and disrupted by ultrasonication. The homogenate was then centrifuged for 10 min at 1000× g and the supernatant was stored at −80° C. until subsequent use (see below). The protein content was determined by the Bradford method (BioRad, Munich) using BSA as the standard.
The test volume is 100 μl and contains 20 mM Tris buffer (pH 7.4), 0.1 mg of BSA (bovine serum albumin)/ml, 5 mM Mg^2+, 0.5 μM cGMP (including about 50,000 cpm of [3H]cGMP as a tracer), 1 μl of the respective substance dilution in DMSO and sufficient recombinant PDE (1000× g supernatant, see above) to ensure that 10-20% of the cGMP is converted under the said experimental conditions. […] After a preincubation of 5 min at 37° C., the reaction is started by adding the substrate (cGMP) and the assay is incubated for a further 15 min; after that, it is stopped by adding SPA beads (50 μl). In accordance with the manufacturer's instructions, the SPA beads had previously been resuspended in water, but were then diluted 1:3 (v/v) in water; the diluted solution also contains 3 mM IBMX to ensure a complete PDE activity stop. After the beads have been sedimented (>30 min), the MTP's are analyzed in commercially available luminescence detection devices. The corresponding IC50 values of the compounds for the inhibition of PDE activity are determined from the concentration-effect curves by means of non-linear regression.

[1] = tested on: isolated guinea pig Langendorff hearts; assay: Perfused guinea-pig Langendorff heart (bolus injection into the perfusion flow)
Source text: (Modification: Bolus Injection into the Perfusion Flow)
Guinea-pigs (male, Dunkin Hartley, 400-500 g; Charles River, Sulzfeld, Germany) kept in Macrolon® cages (type IV) with free access to food (maintenance diet no. 3418, Provimi-Kliba, CH-4303 Kaiseraugst) and tap water, were killed by cervical dislocation and the thoracic cavity was opened. The heart was rapidly excised and perfused with Krebs-Henseleit solution at a constant pressure of 80 cm H2O ([…]) via retrograde cannulation of the aorta in a Langendorff apparatus. The Krebs-Henseleit solution was composed as follows (mM: NaCl 118, KCl 4.7, CaCl2 1.9, MgSO4 1.2, KH2PO4 1.2, NaHCO3 25.0, and glucose 5.0, at 37° C., gassed with 95% O2/5% CO2, v/v). Through an incision in the left atrium, a water-filled balloon catheter connected to a Statham P 23 Db pressure transducer was introduced into the left ventricle and preloaded to a pressure of […], mimicking the diastolic pressure.
Precoronary perfusate flow (CF, at an initial average passive flow of 11-13 ml/min) was measured using an electromagnetic flow meter. The change in left ventricular isovolumetric pressure amplitude (LVP) calculated by subtracting the diastolic from the systolic pressure, the rate of maximal left ventricular pressure rise (dP/dtmax), and the rate of the spontaneously beating heart (HR) were continuously recorded and monitored by a data acquisition system (Notocord, hem version 3.3; F-78290 Croissy).
Following at least 1 h of perfusion and stabilization of all cardiac parameters, the test drug is injected as 100 μl bolus within 2 s directly into the perfusion tube connected to the aortic inflow and increased threefold after the previous dose has produced its coronary dilatory response and the perfusion flow has returned to pre-drug values again. Thee drug-induced change in cardiac parameters is expressed as percentage of the initial pre-drug values.

SMILES | PDE5 inhibition in vitro (result in words) (PDE5A1) | pIC50 (PDE5A1) | heart rate [1] | left ventricular pressure [1] | coronary heart flow [1]
CC(=O)Oc1ccccc1C(=O)O [Aspirin, acetylsalicylic acid] | show no effects | < 4.00 | – | – | –
Cc1ccc(-c2cc(C(F)(F)F)nn2-c2ccc(S(N)(=O)=O)cc2)cc1 [Celecoxib] | – | – | no effect | no effect | –
O=C(O)Cc1ccccc1Nc1c(Cl)cccc1Cl [Diclofenac] | show no effects | < 4.00 | – | – | substantially lack the ability to increase coronary heart flow
Cc1ccc(-c2ncc(Cl)cc2-c2ccc(S(C)(=O)=O)cc2)cn1 [Etorecoxib] | show no effects | < 4.00 | – | – | substantially lack the ability to increase coronary heart flow
CS(=O)(=O)Nc1cc2c(cc1Sc1ccc(F)cc1F)C(=O)CC2 [L-745337] | possess PDE5 activity in the μM range | – | – | – | –
Cc1ccc(Nc2c(F)cccc2Cl)c(CC(=O)O)c1 [Lumiracoxib] | show no effects | < 4.00 | – | – | substantially lack the ability to increase coronary heart flow
CCC(=O)NS(=O)(=O)c1ccc(-c2c(-c3ccccc3)noc2C)cc1 [Parecoxib] | show no effects | < 4.00 | – | – | substantially lack the ability to increase coronary heart flow
CS(=O)(=O)c1ccc(C2=C(c3ccccc3)C(=O)OC2)cc1 [Rofecoxib] | show no effects | < 4.00 | – | – | substantially lack the ability to increase coronary heart flow
Cc1onc(-c2ccccc2)c1-c1ccc(S(N)(=O)=O)cc1 [Valdecoxib] | show no effects | < 4.00 | – | – | substantially lack the ability to increase coronary heart flow
CS(=O)(=O)Nc1cc2c(cc1Oc1ccc(F)cc1F)C(=O)CC2 [flosulide] | possess PDE5 activity in the μM range | – | – | – | –
CS(=O)(=O)Nc1ccc([N+](=O)[O-])cc1Oc1ccccc1 [nimesulide] | possess PDE5 activity in the μM range | – | – | – | –
